Measured values published in ChEMBL document CHEMBL5104195, “Discovery of Orally Bioavailable SOS1 Inhibitors for Suppressing KRAS-Driven Carcinoma” (J Med Chem, 2022).

What was measured:
SOS1-KRAS = SOS1-KRAS (Homo sapiens, UniProt Q07889); assay: Inhibition of N-terminal His6-tagged human recombinant SOS1(564 to 1049 residues)/human recombinant KRAS G12C mutant incubated for 60 mins by HTRF assay
[1] = target: T1, Son of sevenless homolog 1 (Homo sapiens, UniProt Q07889); assay: Inhibition of SOS1 in human DLD-1 cells assessed as reduction in ERK phosphorylation incubated for 1 hr by fluorescence assay; assay type: cell-based
T1 sequence (Q07889 whole entry): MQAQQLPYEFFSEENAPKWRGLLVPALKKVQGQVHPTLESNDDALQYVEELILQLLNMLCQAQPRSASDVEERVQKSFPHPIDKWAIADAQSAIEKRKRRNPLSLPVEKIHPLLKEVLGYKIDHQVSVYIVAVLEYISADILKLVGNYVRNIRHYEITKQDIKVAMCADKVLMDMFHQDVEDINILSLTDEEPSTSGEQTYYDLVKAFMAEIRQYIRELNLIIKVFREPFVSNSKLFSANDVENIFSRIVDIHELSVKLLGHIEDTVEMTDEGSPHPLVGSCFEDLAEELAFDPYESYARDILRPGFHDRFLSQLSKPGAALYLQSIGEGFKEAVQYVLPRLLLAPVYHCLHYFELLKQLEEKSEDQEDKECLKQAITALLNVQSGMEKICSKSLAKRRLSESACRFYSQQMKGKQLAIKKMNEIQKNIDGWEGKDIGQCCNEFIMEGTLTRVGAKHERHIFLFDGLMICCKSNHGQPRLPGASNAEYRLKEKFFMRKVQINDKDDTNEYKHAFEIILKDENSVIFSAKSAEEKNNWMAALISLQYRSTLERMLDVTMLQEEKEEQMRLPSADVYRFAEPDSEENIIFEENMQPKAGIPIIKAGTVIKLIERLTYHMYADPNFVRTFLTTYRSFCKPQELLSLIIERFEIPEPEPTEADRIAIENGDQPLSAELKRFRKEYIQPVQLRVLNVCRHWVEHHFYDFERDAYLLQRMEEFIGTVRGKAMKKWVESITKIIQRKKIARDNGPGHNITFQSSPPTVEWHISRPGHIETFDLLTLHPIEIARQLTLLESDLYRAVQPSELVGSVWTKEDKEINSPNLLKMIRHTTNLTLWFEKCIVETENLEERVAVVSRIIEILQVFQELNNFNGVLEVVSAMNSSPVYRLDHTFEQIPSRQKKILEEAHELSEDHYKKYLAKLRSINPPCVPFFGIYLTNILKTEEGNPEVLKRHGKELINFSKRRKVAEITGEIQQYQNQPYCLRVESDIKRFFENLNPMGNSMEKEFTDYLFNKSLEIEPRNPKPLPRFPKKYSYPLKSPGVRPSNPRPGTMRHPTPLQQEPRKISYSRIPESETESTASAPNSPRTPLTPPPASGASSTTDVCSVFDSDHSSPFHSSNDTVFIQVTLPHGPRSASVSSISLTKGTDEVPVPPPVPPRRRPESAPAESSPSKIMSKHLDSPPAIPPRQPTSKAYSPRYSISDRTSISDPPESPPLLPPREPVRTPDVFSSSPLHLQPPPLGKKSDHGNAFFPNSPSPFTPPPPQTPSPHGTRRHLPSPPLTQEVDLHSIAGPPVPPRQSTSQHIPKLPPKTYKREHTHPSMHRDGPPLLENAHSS

[2] = Elimination rate constant in ICR mouse at 50 mg/kg, po measured up to 24 hrs by LC-MS/MS analysis; conditions: in vivo
[3] = Half life in ICR mouse at 50 mg/kg, po measured up to 24 hrs by LC-MS/MS analysis; conditions: in vivo
[4] = MRT in ICR mouse at 50 mg/kg, po measured up to 24 hrs by LC-MS/MS analysis; conditions: in vivo
in vivo [5] = conditions: ICR, mouse, po, 50 mg/kg
in vivo [6] = conditions: ICR, mouse, po, 50 mg/kg; remark: listed apart in the source
in vivo [7] = conditions: ICR, mouse, po, 50 mg/kg; remark: listed apart in the source
[8] = Toxicity in BALB/c nude mouse xenografted with human MIA PaCa-21 cells expressing KRAS G12C mutant assessed as animal death at 50 mg/kg, po qd measured on day 21; conditions: in vivo, 504 h
[9] = Toxicity in BALB/c nude mouse xenografted with human MIA PaCa-21 cells expressing KRAS G12C mutant assessed as weight loss at 50 mg/kg, po qd measured on day 21; conditions: in vivo
[10] = Plasma protein binding in rat at 2 uM preincubated for 1 hr by balanced dialysis based LC-MS/MS analysis
[11] = Plasma protein binding in mouse at 2 uM preincubated for 1 hr by balanced dialysis based LC-MS/MS analysis
[12] = Plasma protein binding in dog at 2 uM preincubated for 1 hr by balanced dialysis based LC-MS/MS analysis
[13] = Plasma protein binding in monkey at 2 uM preincubated for 1 hr by balanced dialysis based LC-MS/MS analysis; conditions: rhesus monkey

`Cc1nc(N[C@H](C)c2cccc(C(F)F)c2F)c2cc3c(cc2n1)OC[C@H]1CN(C(=O)C2(C#N)CC2)CCN31` showed an IC50 (SOS1-KRAS) of 8.4 nM and an IC50 [1] of 13 nM.

Molecule `Cc1nc(N[C@H](C)c2cccc(C(F)F)c2F)c2cc3c(cc2n1)OCC[C@H]1CN(C(=O)C2COC2)CCN31` has a k el at 24 h [2] of 0.000142 s⁻¹, a half-life at 24 h [3] of 1.36 h and an MRT at 24 h [4] of 1.7 h. The Tmax at 24 h (in vivo [5]) was 0.38 h, the Cmax at 24 h (in vivo [6]) was 885 ng/mL and the AUC at 24 h (in vivo [7]) was 1610 ng·h/mL.

With `Cc1nc(N[C@H](C)c2cccc(C(F)F)c2F)c2cc3c(cc2n1)OCC[C@H]1CN(C)CCN31` the k el at 24 h [2] was 9.78e-06 s⁻¹, the half-life at 24 h [3] was 20 h and the MRT at 24 h [4] was 9.58 h. It also gave a Tmax at 24 h (in vivo [5]) of 3.5 h, a Cmax at 24 h (in vivo [6]) of 191 ng/mL and an AUC at 24 h (in vivo [7]) of 3250 ng·h/mL.

With `COCCN1CCN2c3cc4c(N[C@H](C)c5cccc(C(F)F)c5F)nc(C)nc4cc3OCC[C@H]2C1` the k el at 24 h [2] was 2.64e-05 s⁻¹, the half-life at 24 h [3] was 7.23 h and the MRT at 24 h [4] was 8.31 h. It also gave a Tmax at 24 h (in vivo [5]) of 5.67 h, a Cmax at 24 h (in vivo [6]) of 433 ng/mL and an AUC at 24 h (in vivo [7]) of 5420 ng·h/mL.

With `Cc1nc(N[C@H](C)c2cccc(C(F)F)c2F)c2cc3c(cc2n1)OCC[C@H]1CN(C(=O)[C@@H]2CCOC2)CCN31` the k el at 24 h [2] was 8.39e-05 s⁻¹, the half-life at 24 h [3] was 2.29 h and the MRT at 24 h [4] was 2.89 h. The Activity [8] was “Non-Toxic”, the Activity [9] was “Non-Toxic” and the fraction unbound at 1 h, 2 µM [10] was 0.001. It also gave a fraction unbound at 1 h, 2 µM [11] of 0.006, a fraction unbound at 1 h, 2 µM [12] of 0.001 and a fraction unbound at 1 h, 2 µM [13] of 0.001. It also gave a Tmax at 24 h (in vivo [5]) of 0.417 h, a Cmax at 24 h (in vivo [6]) of 1450 ng/mL and an AUC at 24 h (in vivo [7]) of 7490 ng·h/mL.

`Cc1nc(N[C@H](C)c2cccc(C(F)F)c2F)c2cc3c(cc2n1)OCC[C@H]1CN(CC#N)CCN31` gave an IC50 [1] of 70 nM.

In the case of `Cc1nc(N[C@H](C)c2cccc(C(F)F)c2F)c2cc3c(cc2n1)OCC[C@H]1CN(c2ccnn2C)CCN31`, the k el at 24 h [2] is reported as 7.36e-05 s⁻¹, the half-life at 24 h [3] is reported as 2.61 h and the MRT at 24 h [4] is reported as 4.47 h. For the same molecule, the Activity [8] was “Non-Toxic”, the Activity [9] was “Non-Toxic” and the fraction unbound at 1 h, 2 µM [10] was 0.107. The fraction unbound at 1 h, 2 µM [11] was 0.079, the fraction unbound at 1 h, 2 µM [12] was 0.01 and the fraction unbound at 1 h, 2 µM [13] was 0.015. It also gave a Tmax at 24 h (in vivo [5]) of 0.33 h, a Cmax at 24 h (in vivo [6]) of 4690 ng/mL and an AUC at 24 h (in vivo [7]) of 48800 ng·h/mL.

Work on `Cc1nc(N[C@H](C)c2cccc(C(F)F)c2F)c2cc3c(cc2n1)OCC[C@H]1CN(CC2COC2)CCN31` yielded a k el at 24 h [2] of 2.61e-05 s⁻¹, a half-life at 24 h [3] of 7.39 h and an MRT at 24 h [4] of 7.64 h. The Tmax at 24 h (in vivo [5]) was 3 h, the Cmax at 24 h (in vivo [6]) was 645 ng/mL and the AUC at 24 h (in vivo [7]) was 10700 ng·h/mL.

Work on `Cc1nc(N[C@H](C)c2cccc(C(F)F)c2F)c2cc3c(cc2n1)OCC[C@H]1CN(C(=O)c2cccnc2)CCN31` yielded a k el at 24 h [2] of 0.000135 s⁻¹, a half-life at 24 h [3] of 1.47 h and an MRT at 24 h [4] of 1.78 h. For the same molecule, the Tmax at 24 h (in vivo [5]) was 0.333 h, the Cmax at 24 h (in vivo [6]) was 1580 ng/mL and the AUC at 24 h (in vivo [7]) was 3180 ng·h/mL.
